In patent US10993939B2, “Compositions for treating or preventing vasomotor symptoms” (Mitsubishi Tanabe Pharma Corporation, priority 2016, dated 2021):

How the values were obtained:
naive SD rats = experiment: Evaluation of TRPM8 antagonist on core body (rectal) temperature in rats; assay type: in vivo
Procedure: Methods: Compound A (0.3 and 3 mg/kg) or vehicle was orally administered to naive SD rats (n=6). Rectal temperature was measured before, 1, 2, 3 and 6 hours after administration. AUC for 0 to 6 hours was calculated and statistically analyzed.

[1] = tested on: female subjects experiencing Vasomotor Symptoms (VMS); experiment: Phase Ib study: core body temperature assessment; assay type: in vivo, human; conditions: 50 mg; within 24 hours post-dose on Visit Day 1, 7, 10 or 14, FIG. 4
From the text: Study Design: This was a Phase Ib, randomized, double blind, placebo controlled study. The study design is illustrated in FIG. 2. Following the initial Screening visit, eligible subjects was given an actigraphy event monitor (watch) to record episodes of flashing as Vasomotor symptoms (VMS) events during a period of 2 weeks during Screening, in order to confirm VMS eligibility criteria (>7 VMS/day on average during 2 weeks). Subjects may be required to return to the site during the Screening period to read or exchange the actigraphy event monitor. Subjects deemed eligible following review of VMS data were invited to attend the Clinical research unit (CRU) for one residential period of 16 days duration, including 14 days of Investigational Medicinal Product (IMP) administration. Subjects were admitted to the CRU 1 day prior to dosing (Day −1). No medication was administered on Day −1. On Day 1, subjects who meet the study eligibility criteria were randomized to receive one dose level of either Compound A (6 subjects) or a matching placebo (2 subjects) in a double-blind manner. Randomized treatment was administered once nightly, starting on Day 1, for a total duration of 14 days. […]

[2] = tested on: female subjects experiencing Vasomotor Symptoms (VMS); experiment: Phase Ib study: frequency of vasomotor symptoms (VMS); assay type: in vivo, human; parameters: key to Mean observed value in VMS frequency (moderate and severe VMS): moderate + severe VMS events per day
From the text: Study Design: This was a Phase Ib, randomized, double blind, placebo controlled study. The study design is illustrated in FIG. 2. Following the initial Screening visit, eligible subjects was given an actigraphy event monitor (watch) to record episodes of flashing as Vasomotor symptoms (VMS) events during a period of 2 weeks during Screening, in order to confirm VMS eligibility criteria (>7 VMS/day on average during 2 weeks). Subjects may be required to return to the site during the Screening period to read or exchange the actigraphy event monitor. Subjects deemed eligible following review of VMS data were invited to attend the Clinical research unit (CRU) for one residential period of 16 days duration, including 14 days of Investigational Medicinal Product (IMP) administration. Subjects were admitted to the CRU 1 day prior to dosing (Day −1). No medication was administered on Day −1. On Day 1, subjects who meet the study eligibility criteria were randomized to receive one dose level of either Compound A (6 subjects) or a matching placebo (2 subjects) in a double-blind manner. Randomized treatment was administered once nightly, starting on Day 1, for a total duration of 14 days.
Fifty (50) mg of Compound A was administered to the female subjects experiencing Vasomotor Symptoms (VMS), and as the above-mentioned assessments, a Frequency of VMS and a Core body temperature assessment were examined.
Here a moderate VMS and a severe VMS were counted as a VMS frequency.

O=C(O)c1ccc(S(=O)(=O)N(Cc2ccc(OC(F)(F)F)cc2)c2ncc3ccccc3c2C2CC2)cc1 [Compound A, 4-({(4-cyclopropylisoquinolin-3-yl)[4-(trifluoromethoxy)benzyl]amino}sulfonyl)benzoic acid]
Maximum decrease in rectal temperature (amplitude) (naive SD rats; 3 mg/kg orally, at 2 hours after administration, SD rats): 0.82 °C | Rectal temperature compared to vehicle (AUC for 0 to 6 hours) (naive SD rats; 0.3 and 3 mg/kg orally, naive SD rats, P<0.01 vs vehicle, FIG. 1): significantly reduced rectal temperature | Change from baseline in core body temperature [1]: reduced the core body temperature significantly | Effect on frequency of VMS versus placebo ([2]; 50 mg once nightly, 14 days, FIG. 3): reduced the frequency of VMS significantly | Onset of the reduction effect of VMS frequency ([2]; 50 mg once nightly, FIG. 3): the reduction effect of VMS frequency was shown at Day 2 or later | Mean observed value in VMS frequency (moderate and severe VMS) ([2]; Baseline (before dosing), 50 mg group): 11.2 | Mean observed value in VMS frequency (moderate and severe VMS) ([2]; Day 1, 50 mg once nightly): 11.7 | Mean observed value in VMS frequency (moderate and severe VMS) ([2]; Day 2, 50 mg once nightly): 6.0 | Mean observed value in VMS frequency (moderate and severe VMS) ([2]; Day 3, 50 mg once nightly): 4.7 | Mean observed value in VMS frequency (moderate and severe VMS) ([2]; Day 4, 50 mg once nightly): 4.7 | Mean observed value in VMS frequency (moderate and severe VMS) ([2]; Day 5, 50 mg once nightly): 2.7 | Mean observed value in VMS frequency (moderate and severe VMS) ([2]; Day 6, 50 mg once nightly): 2.8 | Mean observed value in VMS frequency (moderate and severe VMS) ([2]; Day 7, 50 mg once nightly): 3.0 | Mean observed value in VMS frequency (moderate and severe VMS) ([2]; Day 8, 50 mg once nightly): 3.3 | Mean observed value in VMS frequency (moderate and severe VMS) ([2]; Day 9, 50 mg once nightly): 1.3 | Mean observed value in VMS frequency (moderate and severe VMS) ([2]; Day 10, 50 mg once nightly): 3.2 | Mean observed value in VMS frequency (moderate and severe VMS) ([2]; Day 11, 50 mg once nightly): 2.8 | Mean observed value in VMS frequency (moderate and severe VMS) ([2]; Day 12, 50 mg once nightly): 2.7 | Mean observed value in VMS frequency (moderate and severe VMS) ([2]; Day 13, 50 mg once nightly): 2.3 | Mean observed value in VMS frequency (moderate and severe VMS) ([2]; Day 14, 50 mg once nightly): 2.3
